Data taken from PubChem BioAssay (NCI).
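All cell lines were grown in 96-well plates and treated with compound for 48 hours. GI50 marks 50% less growth. At the TGI there is no net growth.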

Assays:
Test in all cases: inhibition of tumour cell growth, NCI panel, 48 h
A549 NSCLC = test system: A549 NSCLC
NCI-H23 lung = test system: NCI-H23 lung
SF-539 CNS = test system: SF-539 CNS
U251 CNS = test system: U251 CNS
OVCAR-3 ovarian = test system: OVCAR-3 ovarian
SR leukemia = test system: SR leukemia
MOLT-4 leukemia = test system: MOLT-4 leukemia
EKVX NSCLC = test system: EKVX NSCLC
TK-10 renal = test system: TK-10 renal
LOX IMVI melanoma = test system: LOX IMVI melanoma

Compound: O=C(Nc1ccc(-n2ccc3c(NC(=O)c4ccccc4)nccc32)cc1)c1ccc(N2CCOCC2)c(C(F)(F)F)c1
- GI50 (A549 NSCLC): 0.0488 µM
- TGI (A549 NSCLC): 4.15 µM
- GI50 (NCI-H23 lung): 1.39 µM
- TGI (NCI-H23 lung): > 44.8 µM
- GI50 (SF-539 CNS): 0.0513 µM
- TGI (SF-539 CNS): 6.79 µM
- GI50 (U251 CNS): 0.0441 µM
- TGI (U251 CNS): 8.16 µM
- GI50 (OVCAR-3 ovarian): 0.254 µM
- TGI (OVCAR-3 ovarian): 9.89 µM
- GI50 (SR leukemia): < 0.0189 µM
- TGI (SR leukemia): > 100 µM
- GI50 (MOLT-4 leukemia): 0.0421 µM
- TGI (MOLT-4 leukemia): > 100 µM
- GI50 (EKVX NSCLC): 3.9 µM
- TGI (EKVX NSCLC): > 100 µM
- GI50 (TK-10 renal): 0.449 µM
- TGI (TK-10 renal): 26.1 µM
- GI50 (LOX IMVI melanoma): 0.0334 µM
- TGI (LOX IMVI melanoma): 7.06 µM

Compound: CC(C)=CCC/C(C)=C/CC/C(C)=C/C1CCC(=O)C1(C)C (stereo not drawn)
- TGI (A549 NSCLC): 77.6 µM
- TGI (NCI-H23 lung): 41.1 µM
- TGI (SF-539 CNS): 38.9 µM
- TGI (U251 CNS): 32.7 µM
- TGI (OVCAR-3 ovarian): 32.5 µM
- TGI (SR leukemia): 40.8 µM
- TGI (MOLT-4 leukemia): 41 µM
- TGI (EKVX NSCLC): 42.4 µM
- TGI (TK-10 renal): > 100 µM
- TGI (LOX IMVI melanoma): 28.9 µM

Compound: COC(=O)[C@H](Cc1cn(C)cn1)NC(=O)[C@@H](NC(=O)Nc1cc(C(F)(F)F)cc(C(F)(F)F)c1)C(C)(C)C
- GI50 (A549 NSCLC): > 10 µM
- TGI (A549 NSCLC): > 10 µM
- GI50 (NCI-H23 lung): > 10 µM
- TGI (NCI-H23 lung): > 10 µM
- GI50 (SF-539 CNS): > 10 µM
- TGI (SF-539 CNS): > 10 µM
- GI50 (U251 CNS): > 10 µM
- TGI (U251 CNS): > 10 µM
- GI50 (OVCAR-3 ovarian): > 10 µM
- TGI (OVCAR-3 ovarian): > 10 µM
- GI50 (SR leukemia): > 10 µM
- TGI (SR leukemia): > 10 µM
- GI50 (MOLT-4 leukemia): > 10 µM
- TGI (MOLT-4 leukemia): > 10 µM
- GI50 (TK-10 renal): > 10 µM
- TGI (TK-10 renal): > 10 µM
- GI50 (LOX IMVI melanoma): > 10 µM
- TGI (LOX IMVI melanoma): > 10 µM

Compound: CC(C)(C)C1CCC(=O)C(C(O)CC2CC(=O)N(c3ccccc3)C(=O)C2)C1 (stereo not drawn)
- TGI (A549 NSCLC): > 100 µM
- TGI (NCI-H23 lung): > 100 µM
- TGI (SF-539 CNS): > 100 µM
- TGI (U251 CNS): > 100 µM
- TGI (OVCAR-3 ovarian): > 100 µM
- TGI (SR leukemia): > 100 µM
- TGI (MOLT-4 leukemia): > 100 µM
- TGI (EKVX NSCLC): > 100 µM
- TGI (TK-10 renal): > 100 µM
- TGI (LOX IMVI melanoma): > 100 µM

Compound: O=C(O)CNC(=O)C1NC(C(F)(F)F)(C(F)(F)F)OC1(C(F)(F)F)C(F)(F)F (stereo not drawn)
- TGI (A549 NSCLC): > 100 µM
- TGI (NCI-H23 lung): > 100 µM
- TGI (SF-539 CNS): > 100 µM
- TGI (U251 CNS): > 100 µM
- TGI (OVCAR-3 ovarian): > 100 µM
- TGI (SR leukemia): > 100 µM
- TGI (MOLT-4 leukemia): > 100 µM
- TGI (EKVX NSCLC): > 100 µM
- TGI (TK-10 renal): > 100 µM
- TGI (LOX IMVI melanoma): > 100 µM

Compound: CCCC(=O)Nc1c(I)cc(I)c(CC(CC)C(=O)O)c1I (stereo not drawn)
- GI50 (A549 NSCLC): > 100 µM
- TGI (A549 NSCLC): > 100 µM
- GI50 (NCI-H23 lung): > 100 µM
- TGI (NCI-H23 lung): > 100 µM
- GI50 (SF-539 CNS): > 100 µM
- TGI (SF-539 CNS): > 100 µM
- GI50 (U251 CNS): > 100 µM
- TGI (U251 CNS): > 100 µM
- GI50 (OVCAR-3 ovarian): > 100 µM
- TGI (OVCAR-3 ovarian): > 100 µM
- GI50 (SR leukemia): > 100 µM
- TGI (SR leukemia): > 100 µM
- GI50 (MOLT-4 leukemia): > 100 µM
- TGI (MOLT-4 leukemia): > 100 µM
- GI50 (EKVX NSCLC): > 100 µM
- TGI (EKVX NSCLC): > 100 µM
- GI50 (TK-10 renal): > 100 µM
- TGI (TK-10 renal): > 100 µM
- GI50 (LOX IMVI melanoma): > 100 µM
- TGI (LOX IMVI melanoma): > 100 µM

Compound: CC(C)C1NC(=O)[C@H](C)OC(=O)[C@@H](C(C)C)NC(=O)[C@@H](C)OC(=O)C(C(C)C)NC(=O)[C@H](C)OC1=O (stereo partly drawn)
- TGI (A549 NSCLC): > 100 µM
- TGI (NCI-H23 lung): > 100 µM
- TGI (SF-539 CNS): > 81.7 µM
- TGI (U251 CNS): > 100 µM
- TGI (OVCAR-3 ovarian): > 100 µM
- TGI (SR leukemia): 72.9 µM
- TGI (MOLT-4 leukemia): > 100 µM
- TGI (EKVX NSCLC): > 100 µM
- TGI (TK-10 renal): > 100 µM
- TGI (LOX IMVI melanoma): > 79 µM

Compound: CNC(=S)N(C1CCCCC1)C1CCCCC1
- TGI (A549 NSCLC): > 100 µM
- TGI (NCI-H23 lung): > 100 µM
- TGI (SF-539 CNS): > 100 µM
- TGI (U251 CNS): > 100 µM
- TGI (OVCAR-3 ovarian): > 100 µM
- TGI (SR leukemia): > 100 µM
- TGI (MOLT-4 leukemia): > 100 µM
- TGI (EKVX NSCLC): > 100 µM
- TGI (TK-10 renal): > 100 µM
- TGI (LOX IMVI melanoma): > 100 µM

Compound: CC(=Nc1ccccc1)C1=C(O)C(Cc2ccc(F)cc2)NC1=O (stereo not drawn)
- GI50 (A549 NSCLC): 0.675 µM
- TGI (A549 NSCLC): > 100 µM
- GI50 (NCI-H23 lung): 1.71 µM
- TGI (NCI-H23 lung): > 100 µM
- GI50 (SF-539 CNS): 1.36 µM
- TGI (SF-539 CNS): 12.1 µM
- GI50 (U251 CNS): 0.825 µM
- TGI (U251 CNS): > 100 µM
- GI50 (OVCAR-3 ovarian): 0.323 µM
- TGI (OVCAR-3 ovarian): 1.2 µM
- GI50 (SR leukemia): 0.26 µM
- TGI (SR leukemia): > 100 µM
- GI50 (MOLT-4 leukemia): 3.18 µM
- TGI (MOLT-4 leukemia): > 100 µM
- GI50 (TK-10 renal): 2.1 µM
- TGI (TK-10 renal): > 100 µM
- GI50 (LOX IMVI melanoma): 0.619 µM
- TGI (LOX IMVI melanoma): > 100 µM

Compound: S=C1SCN(C2CCCCCCCCCCC2)CN1C1CCCCCCCCCCC1
- TGI (A549 NSCLC): > 100 µM
- TGI (NCI-H23 lung): > 100 µM
- TGI (SF-539 CNS): > 100 µM
- TGI (U251 CNS): > 100 µM
- TGI (OVCAR-3 ovarian): > 100 µM
- TGI (SR leukemia): > 100 µM
- TGI (MOLT-4 leukemia): > 100 µM
- TGI (EKVX NSCLC): > 100 µM
- TGI (TK-10 renal): > 100 µM
- TGI (LOX IMVI melanoma): > 100 µM

Compound: CC(=O)OC1(C#N)CC2OC1C1N=NN(C(=O)OC(C)(C)C)C21 (stereo not drawn)
- TGI (SF-539 CNS): > 100 µM
- TGI (U251 CNS): > 100 µM
- TGI (OVCAR-3 ovarian): > 80.6 µM
- TGI (SR leukemia): 57.8 µM
- TGI (MOLT-4 leukemia): > 100 µM
- TGI (EKVX NSCLC): > 100 µM
- TGI (TK-10 renal): > 100 µM
- TGI (LOX IMVI melanoma): > 31.6 µM

Compound: COc1cc2c(cc1OC)-c1ncc3cc(OC)c(OC)cc3c1C2
- GI50 (A549 NSCLC): > 50 µM
- TGI (A549 NSCLC): > 50 µM
- GI50 (NCI-H23 lung): > 50 µM
- TGI (NCI-H23 lung): > 50 µM
- GI50 (SF-539 CNS): > 50 µM
- TGI (SF-539 CNS): > 50 µM
- GI50 (U251 CNS): > 50 µM
- TGI (U251 CNS): > 50 µM
- GI50 (OVCAR-3 ovarian): > 50 µM
- TGI (OVCAR-3 ovarian): > 50 µM
- GI50 (SR leukemia): 31.8 µM
- TGI (SR leukemia): > 50 µM
- GI50 (MOLT-4 leukemia): 25.4 µM
- TGI (MOLT-4 leukemia): > 50 µM
- GI50 (EKVX NSCLC): > 50 µM
- TGI (EKVX NSCLC): > 50 µM
- GI50 (TK-10 renal): > 50 µM
- TGI (TK-10 renal): > 50 µM
- GI50 (LOX IMVI melanoma): > 50 µM
- TGI (LOX IMVI melanoma): > 50 µM

Compound: CC(C)=CCc1c(O)c(C(=O)CC(C)C)c(O)c2c(-c3ccccc3)cc(=O)oc12
- GI50 (A549 NSCLC): 12 µM
- TGI (A549 NSCLC): > 50 µM
- GI50 (NCI-H23 lung): 6.84 µM
- TGI (NCI-H23 lung): > 50 µM
- GI50 (SF-539 CNS): 5.82 µM
- TGI (SF-539 CNS): 22.5 µM
- GI50 (U251 CNS): 9.59 µM
- TGI (U251 CNS): > 50 µM
- GI50 (OVCAR-3 ovarian): 4.33 µM
- TGI (OVCAR-3 ovarian): > 50 µM
- GI50 (SR leukemia): 12.8 µM
- TGI (SR leukemia): > 50 µM
- GI50 (MOLT-4 leukemia): 10.3 µM
- TGI (MOLT-4 leukemia): > 50 µM
- GI50 (EKVX NSCLC): 11.5 µM
- TGI (EKVX NSCLC): > 50 µM
- GI50 (TK-10 renal): 9.98 µM
- TGI (TK-10 renal): > 50 µM
- GI50 (LOX IMVI melanoma): 15.6 µM
- TGI (LOX IMVI melanoma): > 50 µM

Compound: [N-]=[N+]=NC1C2CC3CC(C2)CC1C3 (stereo not drawn)
- TGI (A549 NSCLC): > 100 µM
- TGI (NCI-H23 lung): > 100 µM
- TGI (SF-539 CNS): > 100 µM
- TGI (U251 CNS): > 100 µM
- TGI (OVCAR-3 ovarian): > 100 µM
- TGI (SR leukemia): > 100 µM
- TGI (MOLT-4 leukemia): > 100 µM
- TGI (EKVX NSCLC): > 100 µM
- TGI (TK-10 renal): > 100 µM
- TGI (LOX IMVI melanoma): > 100 µM

Compound: C[C@H](C(O)CC(=O)C(C)(C)O)[C@H]1CC[C@@]2(C)[C@@H]3CC[C@H]4C(C)(C)[C@@H](OC5OC(COC6OC(CO)C(O)C(O)C6O)C(O)C(O)C5O)CC[C@]4(C)C3=CC[C@]12C (stereo partly drawn)
- TGI (A549 NSCLC): > 100 µM
- TGI (NCI-H23 lung): > 100 µM
- TGI (SF-539 CNS): > 100 µM
- TGI (U251 CNS): > 100 µM
- TGI (OVCAR-3 ovarian): > 100 µM
- TGI (SR leukemia): > 100 µM
- TGI (EKVX NSCLC): > 100 µM
- TGI (TK-10 renal): > 100 µM
- TGI (LOX IMVI melanoma): > 100 µM
